# Assay results reported in US6818226B2, “Dermal penetration enhancers and drug delivery systems involving same” (ACRUX DDS Pty. Ltd., priority 1996, dated 2004).
# Where two headings read alike, the source gives them in different places. Marks after values point to notes of the source that are not given here.
# Columns and labels:
# [1] = Flux of oestradiol, progesterone, norethisterone acetate, ibuprofen, flurbiprofen across shed snake skin, 5 microL/cm^2 (Example 11); type: in vitro ADME; conditions: Children's python
# [2] = type: physicochemical
# Text: Japanese patent JP 61-268631 to Showa Denko KK discloses dermal penetration enhancers suitable for use with water-soluble drugs. The dermal penetration enhancers disclosed include 1-5 carbon fatty acid esters of para-aminobenzoic acid but their chemical structures are quite distinct from the compounds used in the present invention, and the physicochemical properties of the 1-5 carbon fatty acid esters of para-aminobenzoic acid are markedly different to those of the present invention. For example the octanol-water partition coefficients for all the 1-5 carbon fatty acid esters of para-aminobenzoic acid are at least 200 fold lower than those of the present invention. Also the preferred dermal penetration enhancer disclosed in JP 61-268631 is the 2 carbon fatty acid ester of para-aminobenzoic acid (or Benzocaine) which has an octanol-water partition coefficient which is more than 8000 fold lower than those of the present invention. Unlike those of the present invention, the preferred dermal penetration enhancer disclosed in JP 61-268631 has significant pharmacological properties in that it is a local anaesthetic, which has also been reported to cause irritant and allergic skin reactions. […]
# [3] = system: full-thickness guinea pig skin in vivo; experiment: Melanin content of guinea pig skin in vivo after topical hydroquinone solution (Example 4); conditions: for Enhancement ratio (enhancer/control): melanin content
# Procedure: Melanin content was measured by reflectance absorbance from the treated and untreated skin according to the methods outlined in the PhD thesis of Anderson, J. R., titled The Development of Techniques for Measuring the Bioavailability of Topical Depigmenting Agents (School of Pharmaceutics, Victorian College of Pharmacy Ltd., Parkville, Victoria, Australia, Dec., 1985).
# [4] = Hydroquinone penetration across full-thickness guinea pig skin in vitro from gel, Franz cells (Example 4)
# Text: Adult guinea pigs of either sex (weight range 500 g-750 g) were used. The hair on the back flank and back was removed with the aid of depilatory wax (Arielle™) under halothane anaesthesia. Seven days later, after the stratum corneum had completely regenerated, the guinea pigs were killed and the skin removed and placed on a chilled slab. […] For in vivo experiments the guinea pigs were housed in individual cages and the topical hydroquinone formulations were applied to the hair-free areas. Each guinea pig received the test or control formulation on the corresponding contralateral site, thus allowing each animal to act as its own control.
# Radiolabelled hydroquinone (C14, Amersham) was added to each of the topical formulations. At specified time intervals 200 microL of receptor solution was withdrawn with a micro-pipette and replaced with 200 microL of fresh normal saline. The 200 microL samples were added to 800 microL of water which in turn was added to 10 mL of scintillation cocktail consisting of Toluene™ 1L, PPO 5g, POPOP 0.1 g and Triton X™ 500 mL. The scintillation counting was performed on a Packard Tricarb 460C instrument. Disintegrations per minute were determined by an external standard procedure and calculated by the data system of the instrument.
# [5] = Children's python, 24 h, 2 % v/v
# [6] = hairless, mouse, 2 % v/v
# [7] = Flux of oestradiol, progesterone, norethisterone acetate, ibuprofen, flurbiprofen across shed snake skin, 5 microL/cm^2 (Example 11); type: in vitro ADME, Children's python; conditions: for Enhancement ratio: 24 h
# Text: (§1) Dermatol., 94; 235-240, 1990.
# (§2) Degassing was repeated three times.
# In order to further illustrate the present invention and the advantages thereof, the following specific examples are given, it being understood that same are intended only as illustrative and in nowise limitative. In the examples, the effectiveness of the dermal penetration enhancers are illustrated by measuring the skin penetration of physiologically active agents. Also, the skin penetration of the dermal penetration enhancers of this invention were compared with that of other penetration enhancers as well as formulations of bio-affecting agents with common adjuvants. The comparisons made generally consisted of measuring the relative penetration through shed snake skin of the various formulations. In the examples, the in vitro skin penetration studies were performed using the same in vitro diffusion cell apparatus as previously mentioned.
# The two penetration enhancers given as examples are octyl dimethyl PABA and Azone. Both penetration enhancers were again at a concentration of 8% v/v within the formulations and control was without a penetration enhancer. A concentration of 2% w/v oestradiol was used in the formulation and detection wavelength was 212 nm and the mobile phase consisted of acetonitrile:water (40%:60%).
# [8] = Ibuprofen penetration across full-thickness hairless mouse skin in vitro (Example 5); conditions: control, no enhancer; 2% w/v ibuprofen in 70% aqueous ethanol
# [9] = type: in vitro ADME, Children's python
# Text: as §1, §2
# The control formulation contained no penetration enhancer. The detection wavelength was 242 nm and the mobile phase consisted of acetonitrile:water (35%:65%).
# [10] = Diffusion of indomethacin (Indospray) across snake skin after pretreatment with Octyl dimethyl PABA (Example 2); type: in vitro ADME; conditions: Children's python, 24 h
# Procedure: as §1, §2
# 10 microL of increasing concentrations of Octyl dimethyl PABA in absolute ethanol were applied 30 mins prior to the application of the indomethacin formulation. The control experiment involved application of 10 microL of absolute ethanol alone 30 mins prior to the application of the indomethacin formulation. Samples were assayed according to the method described previously.
# [11] = Testosterone flux across shed snake skin, finite dose 5 microL/cm^2 (Example 10); conditions: control, no enhancer, 12% w/v testosterone in absolute ethanol
# Procedure: as §1, §2
# The volume of each formulation applied to the skin was 5 microL/cm^2. Each formulation contained 12% w/v testosterone in absolute ethanol. The dose was applied with a GC syringe.
# Samples were assayed for testosterone by HPLC as shown before in Example 6.
# [12] = Testosterone clearance after intravenous bolus in pigs (Example 13); type: in vivo, domestic weanling pig; conditions: pig, plasma, bolus dose of intravenous testosterone
# [13] = in vivo, Bartek et al. 1972; cited from earlier work
# [14] = Testosterone penetration across dermatomed neonate porcine skin in vitro (Example 6); type: in vitro ADME; conditions: control, no enhancer; 12% w/v testosterone in absolute ethanol
# Text: as §2
# [15] = Ketoprofen flux from transdermal patch across snake skin (Example 9); type: in vitro ADME, Children's python; conditions: control transdermal patch without enhancer, over 24 h
# Procedure: as §1, §2
# The patches were prepared by dissolving 300 mg of ketoprofen, 400 mg of penetration enhancer, 300 mg of polyethylene glycol 400 and 800 mg of hydroxypropylcellulose in 20 mL of ethanol and stirring until viscous. This was then poured onto a clean glass plate and dried at 40 degrees Celsius for 1 h. The thickness of this film was approximately 1 mm. Circles of 0.8 cm^2 were then cut out of this matrix and stuck onto the middle of 2.0 cm^2 circles of OPSITE™ adhesive bandage. This patch was then stuck onto 2.0 cm^2 pieces of snake skin and placed in the diffusion cell. The ketoprofen content of each patch formulation was determined by HPLC in triplicate and found to be 6.99+/−0.30 mg/cm^2 and 6.76+/−0.24 mg/cm^2, for the control and octyl salicylate patches respectively (mean content+/−std error, […]).
# [16] = Diffusion of ketoprofen across snake skin, enhancer included in the formulation (Example 3); conditions: control, no enhancer; 2% w/v ketoprofen in 70% aqueous ethanol; 24 h
# [17] = Diffusion of ketoprofen across shed snake skin after pretreatment with enhancer (Example 1); conditions: control, no enhancer: 70% aqueous ethanol alone for 2 hours before 2% ketoprofen; 24 h
# [18] = Children's python, 24 h, 8 % v/v
compound,measurement,setting,value
"CC(=O)[C@H]1CC[C@H]2[C@@H]3CCC4=CC(=O)CC[C@]4(C)[C@H]3CC[C@]12C [Progesterone, progesterone]",Mean flux +/− std error of progesterone,"[1]; 24 h, 6 % w/v",0.40 +/− 0.02 microg/cm^2 · h
"CCOC(=O)c1ccc(N)cc1 [Benzocaine, 2 carbon fatty acid ester of para-aminobenzoic acid]","octanol-water partition coefficient, fold lower than those of the present invention",[2],more than 8000 fold
"Oc1ccc(O)cc1 [HQ, hydroquinone]",Melanin content,"[3]; HQ 1% w/v control, no enhancer, 5 microL/cm^2",57.5 ± 3.7 μg/cm^2
same,Melanin content,"[3]; HQ 2% w/v control, no enhancer, 5 microL/cm^2",36.8 ± 8.1 μg/cm^2
same,Flux of hydroquinone,"[4]; control gel, no enhancer, 15 mg/cm^2",0.35 ± 0.10 % dose/h
"CCCCCCCCCCCCN1CCCCCC1=O [Azone, 1-dodecal-azacycloheptane-2-one]",Enhancement ratio,[5],3.6
same,Melanin content,"[3]; HQ 2% w/v with enhancer 2% v/v, finite dose solution 5 microL/cm^2",39.5 ± 9.6 μg/cm^2
same,Enhancement ratio (enhancer/control),[3]; HQ 2% w/v with enhancer 2% v/v versus HQ 2% w/v control,0.93
same,median amount of ibuprofen penetrated after 12 hours,[6],1036* μg/cm^2
same,median amount of ibuprofen penetrated after 24 hours,[6],2684* μg/cm^2
same,Mean flux +/− std error of oestradiol,"[7]; Children's python, 8 % v/v",0.40 +/− 0.05 microg/cm^2 · h
same,Enhancement ratio,"[7]; Children's python, 8 % v/v",5.4
same,Mean flux +/− std error of flurbiprofen,[1]; 8 % v/v,2.05 +/− 0.42 microg/cm^2 · h
same,Mean flux +/− std error of ibuprofen,[1]; 8 % v/v,13.53 +/− 1.38 microg/cm^2 · h
same,Mean flux +/− std error of norethisterone acetate,[1]; 8 % v/v,0.16 +/− 0.02 microg/cm^2 · h
same,Mean flux +/− std error of progesterone,"[1]; 24 h, 8 % v/v",2.17 +/− 0.33 microg/cm^2 · h
"CC(C)Cc1ccc(C(C)C(=O)O)cc1 (centres unmarked) [Ibuprofen, ibuprofen]",median amount of ibuprofen penetrated after 12 hours,[8],474 μg/cm^2
same,median amount of ibuprofen penetrated after 24 hours,[8],1819 μg/cm^2
same,Mean flux +/− std error of ibuprofen,[1]; 20 %,5.39 +/− 0.50 microg/cm^2 · h
"CCCCC(CC)COC(=O)c1ccc(N(C)C)cc1 (centres unmarked) [Octyl dimethyl PABA, Octyl dimethyl-para-aminobenzoate]",Enhancement ratio,[5],3.5
same,Melanin content,"[3]; HQ 1% w/v with enhancer 2% v/v, finite dose solution 5 microL/cm^2",38.2 ± 3.1 μg/cm^2
same,Enhancement ratio (enhancer/control),[3]; HQ 1% w/v with enhancer 2% v/v versus HQ 1% w/v control,1.5
same,median amount of ibuprofen penetrated after 12 hours,[6],1123* μg/cm^2
same,median amount of ibuprofen penetrated after 24 hours,[6],2981* μg/cm^2
same,Mean flux +/− std error of oestradiol,"[7]; Children's python, 8 % v/v",0.26 +/− 0.01 microg/cm^2 · h
same,Enhancement ratio,"[7]; Children's python, 8 % v/v",2.4
same,Enhancement ratio,[9]; [18],5.8
same,Mean flux +/− std error of hydrocortisone,[9]; [18],0.79 +/− 0.06 microg/cm^2.h
same,Enhancement ratio (enhancer/control),"[4]; both, guinea pig, 3 % v/v",2.9
same,Mean flux +/− std error of flurbiprofen,[1]; 8 % v/v,2.91 +/− 0.30 microg/cm^2 · h
same,Mean flux +/− std error of ibuprofen,[1]; 8 % v/v,13.16 +/− 1.21 microg/cm^2 · h
same,Mean flux +/− std error of norethisterone acetate,[1]; 8 % v/v,1.85 +/− 0.07 microg/cm^2 · h
same,Mean flux +/− std error of progesterone,"[1]; 24 h, 8 % v/v",0.95 +/− 0.03 microg/cm^2 · h
same,Enhancement ratio,[10]; 1.6 % v/v,1.2
same,Mean flux +/− std error of indomethacin,[10]; 1.6 % v/v,1.43 +/− 0.14 microg.cm^2.h
same,Enhancement ratio,[10]; 3.2 % v/v,1.4
same,Mean flux +/− std error of indomethacin,[10]; 3.2 % v/v,1.71 +/− 0.32 microg.cm^2.h
same,Enhancement ratio,[10]; 6.4 % v/v,1.6
same,Mean flux +/− std error of indomethacin,[10]; 6.4 % v/v,1.94 +/− 0.09 microg.cm^2.h
"C[C@]12CC[C@@H]3c4ccc(O)cc4CC[C@H]3[C@@H]1CC[C@@H]2O [Oestradiol, oestradiol]",Mean flux +/− std error of oestradiol,"[7]; control without penetration enhancer, 2% w/v oestradiol",0.06 +/− 0.01 microg/cm^2 · h
CCCCC(CC)COC(=O)C=Cc1ccc(OC)cc1 (centres unmarked) [PARSOL ® MCX],Flux of hydroquinone,"[4]; HQ gel 15 mg/cm^2 with enhancer (PARSOL MCX 3% v/v, ESCALOL 507 3% v/v, AZONE 5% v/v as in row)",0.93 ± 0.19 % dose/h
same,Enhancement ratio (enhancer/control),"[4]; hydroquinone flux from gel, guinea pig skin in vitro",2.7
C[C@]12CCC(=O)C=C1CC[C@@H]1[C@@H]2[C@@H](O)C[C@@]2(C)[C@H]1CC[C@]2(O)C(=O)CO [hydrocortisone],Mean flux +/− std error of hydrocortisone,"[9]; control, no enhancer, 1% w/v hydrocortisone in 70% aqueous ethanol",0.14 +/− 0.04 microg/cm^2.h
"C#C[C@]1(OC(C)=O)CC[C@H]2[C@@H]3CCC4=CC(=O)CC[C@@H]4[C@H]3CC[C@@]21C [Norethisterone acetate, norethisterone acetate]",Mean flux +/− std error of norethisterone acetate,"[1]; 24 h, 6 % w/v",0.14 +/− 0.02 microg/cm^2 · h
"CC(C(=O)O)c1ccc(-c2ccccc2)c(F)c1 (centres unmarked) [Flurbiprofen, flurbiprofen]",Mean flux +/− std error of flurbiprofen,[1]; 20 %,0.81 +/− 0.05 microg/cm^2 · h
C[C@]12CC[C@H]3[C@@H](CCC4=CC(=O)CC[C@@]43C)[C@@H]1CC[C@@H]2O [testosterone],Mean flux +/− std error of testosterone,[11],0.70 +/− 0.03 microg/cm^2.h
same,clearance,[12],11.1 mL/min/kg
same,"permeability in human skin compared with pig skin, fold lower",[13],2.2 fold
same,mean amount of testosterone penetrated after 4 hours,[14],4 ± 1 μg/cm^2
same,mean amount of testosterone penetrated after 24 hours,[14],13 ± 2 μg/cm^2
CC(C(=O)O)c1cccc(C(=O)c2ccccc2)c1 (centres unmarked) [ketoprofen],Mean flux +/− std error of ketoprofen,[15],0.47 ± 0.04 microg/cm^2.h
same,Mean flux +/− std error of ketoprofen,[16],0.78 ± 0.07 microg/cm^2.h
same,Mean flux +/− std error of ketoprofen,[17],0.96 ± 0.18 microg/cm^2.h
